“And” between values parts separate entries of the source, which are not always exact repeats. Equal entries are not always repeated. Blank lines part the entries; values can stand above or below the molecule they belong to.
Legend:
[1] = test system: pancreatic islets from diabetic db/db mice; assay: Restoration of glucose stimulated insulin release ex vivo (islet perifusion); assay type: cell-based; design: AUC for time 35-75 minutes (glucose response), single repetitions / AUC for time 75-140 minutes (forskolin response), single repetitions: unit not given here; conditions: FGF21 = 50 nM Compound F1, GLP-1 = 100 nM Compound G3
Description: This ex vivo example investigates the ability of pancreatic islets from diabetic db/db mice to restore, in response to treatment with FGF21 and GLP-1 compounds, the ability to release insulin in response to glucose stimulation.
Islets from 25 db/db mice (Charles River), 15 weeks of age, were isolated according to the following procedure:
Animals were killed by cervical dislocation and fixated with pins on a Styrofoam plate. Pancreata were removed and transferred to a Packard vial containing 5 ml collagenase (Life Science, grade II, cat. no. 100502) 300 units/ml (one pancreas/vial) which was kept on ice until all pancreata were removed. Then the pancreata were shaken in the Grant/Edmund S25 thermoshaker at 200 strokes/min. at 37° C. for 5 min. The tissue was transferred to a fresh vial containing 5 ml 150 units/ml collagenase (supernatant was discarded) and shaken again in the thermoshaker for 5 min. The tissue was further shaken 3-5 min. on the thermoshaker, and thereafter all shaking is done by hand for 5-10 sec. each time. These steps were repeated until all tissue was digested. The process was followed continuously under the stereomicroscope and once digested the tissue was pooled and collected in progressively fewer tubes. All supernatants were washed 3 times in HBSS+0.5% NCS (HBSS (10×) from Gibco, cat. no. 14060, is diluted 10× in H2O before use, Newborn Calf Serum (NCS) from Gibco, cat. no. 26010-066), allowed to sediment for 5 min. between each wash, and left on ice, following which the islets were ready for picking. Islets were purified by transferring a little bit of supernatant to a Petri dish, filling up with HBSS+NCS and subsequently transferring (by mouth pipetting) with a constriction pipette to a new Petri dish. From there the islet were re-picked until pure, and then incubated in RPMI 1640 medium (Gibco, cat no 61870-010)+10% NCS at 37° C.
After incubation, the islets were washed in Krebs Ringer solution (115 mM NaCl, 4.7 mM KCl, 2.6 mM CaCl2, 1.2 mM KH2PO4, 1.2 mM MgSO4, 10 mM HEPES, 0.2% BSA, 2 mM glutamine, 5 mM NaHCO3, pH 7.4) and subsequently used in an islet perifusion experiment (Suprafusion 2500 from Brandel). For each of the three preincubation conditions four perifusion columns each with 60 islets were used. The islets were placed in Bio-gel P2 (Bio-Rad. cat. no. 150-4114) in the columns with a nylon mesh below and above the gel. The islets were initially perifused for 40 minutes with Krebs Ringer solution containing 3 mM glucose to obtain a stable baseline of insulin release. After 40 minutes the buffer was exchanged to 15 mM glucose for 30 minutes (time 40-70 min). Then the buffer was exchanged to 15 mM glucose containing 10 μM forskolin (Tocris 1099, batch 3A/86008) for 40 minutes (time 70-110 min). Finally the buffer was exchanged to low glucose (3 mM) for 30 minutes (time 110-140 min). The buffer was set to flow through the perifusion system at a rate of 0.3 ml/minute. Samples were taken every 5 minutes from time 30 to 140 min. Samples were stored at −20° C. and subsequently analysed for insulin, essentially as described by Poulsen et al. in Journal of Biomolecular Screening 12(X); p. 1-8, 2007 (LOCI (Luminescent Oxygen Channeling Immunoassay) sandwich immunoassay).
The results (ng/ml insulin) are shown in Table 1 below as mean+/−standard error of mean (SEM). The figures for the control and the FGF21 compound are based on three repetitions (due to problems with one of the four columns in these two experiments), while the figures for the GLP-1 compound are based on four repetitions.
The corresponding Area Under the Curve (designated AUC) figures were also calculated, and for the statistics the Student's T-test was used.

3T3-L1 adipocytes = assay: FGF21 activity assay, glucose uptake in 3T3-L1 adipocytes; assay type: cell-based, mouse
Description: The following assay may be used for determining the biological activity, or potency, of FGF21 compounds.
Mouse 3T3-L1 fibroblasts (e.g. available from ATCC, catalogue no. CL-173) are maintained in basal medium (DMEM (4500 mg/I Glucose) with 10% Fetal Bovine Serum (FBS) and Penicillin/Streptomycin). The cells are not allowed to reach confluence and should be passed (transferred to new vials) before reaching approx. 60% of confluency (by visual inspection).
For the glucose uptake assay, cells are plated 80,000 cells/well in a 24 well plate, or 20,000 cells/well in a 96 well plate, and when they reach confluency (high density, with a view to have differentiated adipose cells made), the medium is changed from basal medium to basal medium containing Troglitazone, IBMX, Dexamethasone (commercially available from, e.g., Sigma) and human insulin (commercially available from, e.g., Novo Nordisk A/S).
The cells are used 7-14, preferably 7-10, days after initiation of differentiation. […] The cells are lysed with Triton X-100 and lysates transferred to a 96 wells plate, microscint-40 (commercially available from, e.g., Perkin Elmer) is added and amount of tracer counted in a TOP-counter (e.g. a Packard top-counter from Perkin Elmer).
The EC50 of the FGF21 compound in question is calculated, and may be indicated relative to that of, e.g., compound F1.

human GLP-1 receptor = human GLP-1 receptor (human, UniProt P43220 24-463); assay: cell-based or functional assay
Chain of human GLP-1 receptor (P43220 24-463): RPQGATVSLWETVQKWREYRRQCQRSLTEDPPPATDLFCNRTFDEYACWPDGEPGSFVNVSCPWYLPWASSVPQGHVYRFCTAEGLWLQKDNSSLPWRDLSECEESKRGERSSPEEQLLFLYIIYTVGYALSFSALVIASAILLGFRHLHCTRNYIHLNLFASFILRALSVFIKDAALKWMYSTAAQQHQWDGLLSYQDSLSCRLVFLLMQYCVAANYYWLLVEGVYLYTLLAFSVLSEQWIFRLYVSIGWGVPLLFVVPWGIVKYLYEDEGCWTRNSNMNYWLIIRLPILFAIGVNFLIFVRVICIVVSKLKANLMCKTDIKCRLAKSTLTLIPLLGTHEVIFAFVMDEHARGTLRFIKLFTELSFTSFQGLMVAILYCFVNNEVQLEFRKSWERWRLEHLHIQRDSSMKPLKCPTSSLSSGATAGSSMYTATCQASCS

[2] = insulin AUC per perifusion column

Molecule: N-epsilon26-[2-(2-{2-[2-(2-{2-[(S)-4-Carboxy-4-(17-carboxyheptadecanoylamino)butyrylamino]ethoxy}-ethoxy)acetylamino]ethoxy}ethoxy)acetyl][Aib8,Arg34]GLP-1-(7-37) [compound G3]
AUC for time 35-75 minutes (glucose response), single repetitions [1, 2]: 450.5 and 528.5 and 492.9 and 367.8 | AUC for time 75-140 minutes (forskolin response), single repetitions [1, 2]: 3339 and 4005 and 3037 and 2674 | AUC for time 75-140 minutes (forskolin response), mean ([1]; insulin AUC, * FGF21 vs GLP-1): (mean 3239) | AUC for time 35-75 minutes (glucose response), mean ([1]; insulin AUC, ** vs control): (mean 459.9**)

Molecule: S-71-({2-[2-(2-{2-[2-(2-{2-[(S)-4-carboxy-4-(19-carboxynonadecanoyl-amino)butyrylamino]ethoxy}ethoxy)acetylamino]ethoxy}ethoxy)acetylamino]ethylcarbamoyl}methyl)-[Cys71]Met-FGF21 [compound F2]
EC50 relative to that of compound F1 (3T3-L1 adipocytes): 11%

B1: N-alpha1-[2-(2-{2-[2-(2-{2-[(S)-4-carboxy-4-(17-carboxyheptadecanoylamino)butyrylamino]ethoxy}ethoxy)acetylamino]ethoxy}ethoxy)acetyl][Arg56, Arg59, Arg69, Arg122]-Met-FGF21 (protein, listed as Homo sapiens)
chain: HPIPDSSPLLQFGGQVRQRYLYTDDAQQTEAHLEIREDGTVGGAADQSPESLLQLRALRPGVIQILGVRTSRFLCQRPDGALYGSLHFDPEACSFRELLLEDGYNVYQSEAHGLPLHLPGNRSPHRDPAPRGPARFLPLPGLPPALPEPPGILAPQPPDVGSSDPLSMVGPSQGRSPSYAS
modifications: N-terminal Met; N-alpha fatty diacid-gGlu-OEG-OEG acylation; mat_peptide (1)..(181); DISULFID (75)..(93)
EC50 relative to that of compound F1 (3T3-L1 adipocytes): 30%

EC50 of cAMP formation (AlphaScreen cAMP assay), relative to that of compound G1 (human GLP-1 receptor): ~5 times the EC50 of compound G1
B2: N-epsilon37-[2-(2-{2-[2-(2-{2-[(S)-4-Carboxy-4-({trans-4-[(19-carboxynonadecanoylamino)methyl]cyclohexanecarbonyl}amino)butyrylamino]ethoxy}ethoxy)acetylamino]e … (peptide)
peptide: HAEGTFTSDVSSYLEEQAAREFIAWLVRGRK
modifications: DesaminoHis at position 7 (GLP-1 numbering; position 1 of SEQ ID NO:3); Lys37 acylated at N-epsilon with 19-carboxynonadecanoyl-Trx-gamma-Glu-OEG-OEG albumin binder
